In patent US6855730B2, “3-methylidenyl-2-indolinone modulators of protein kinase” (Sugen, Inc., priority 1998, dated 2005):

Columns and labels:
[1] = target: Myc-GyrB-FGFR fusion protein (Homo sapiens, UniProt P11362); assay: Biochemical FGFR assay (ELISA); conditions: read-out: bio fgfR1 IC50
[2] = target: T1, PDGFR-β (Homo sapiens, UniProt P09619); assay: Biochemical PDGFR assay (ELISA, PDGFR-β expressing NIH 3T3 cell lysate); conditions: read-out: bio PDGF IC50
T1 construct: host or cells: NIH 3T3
Excerpt: This assay measures the in vitro kinase activity of PDGFR using ELISA.
Unless otherwise noted, the preparation of working solution-of the following reagents is the same as that for the Biochemical EGFR assay, above. • 1. […] 28D4C10 monoclonal anti-PDGFR antibody (Biochemistry Lab, SUGEN, Inc.). • 3. PBS (Dulbecco's Phosphate-Buffered Saline, Gibco Catalog No. 450-1300EB) • 4. TBST Buffer. • 5. Blocking Buffer. • 6. PDGFR-β expressing NIH 3T3 cell lysate (Screening Lab, SUGEN, Inc.). • 7. TBS Buffer. • 8. TBS+10% DMSO. • 9. […] MnCl2. • 11. Kinase buffer phosphorylation mix.
• 12. NUNC 96-well V bottom polypropylene plates (Applied Scientific Cat. No. AS-72092). • 13. Ethylenediaminetetraacetic acid (EDTA). • 14. Rabbit polyclonal anti-phosphotyrosine serum (Biochemistry Lab, SUGEN, Inc.). • 15. Goat anti-rabbit IgG peroxidase conjugate (Biosource Cat. No. ALI0404). • 16. 2,2′-azino-bis(3-ethylbenzthiazoline-6-sulfonic acid) (ABTS, Sigma Cat. No. A-1888). • 17. Hydrogen peroxide 30% solution (Fisher Cat. No. H325). • 18. ABTS/H2O2. • 19. 0.2 M HCl.
Procedure • 1. Coat Corning 96 well ELISA plates with 0.5 μg 28D4C10 in 100 μl PBS per well, store overnight at 4° C. • 2. Remove unbound 28D4C10 from wells by inverting plate to remove liquid. Wash 1× with dH2O. Pat the plate on a paper towel to remove excess liquid. • 3. Add 150 μl of Blocking Buffer to each well. Incubate for 30 min. at room temperature with shaking. • 4. Wash plate 3× with deionized water, then once with TBST. Pat plate on a paper towel to remove excess liquid and bubbles. • 5. Dilute lysate in HNTG (10 μg lysate/100 μl HNTG) • 6. Add 100 μl of diluted lysate to each well. Shake at room temperature for 60 min. • 7. Wash plates as described in 4, above. • 8. Add 80 μl working kinase buffer mix to ELISA plate containing captured PDGFR. • 9. Dilute test compound 1:10 in TBS in 96-well polypropylene plates (i.e., 10 μl compound+90 μl TBS). • 10. Add 10 μl diluted test compound to ELISA plate. […] Incubate for 30 minutes while shaking at room temperature. • 12. Add 10 μl ATP directly to all wells except negative control well (final well volume should be approximately 100 μl with 20 μM ATP in each well.) Incubate 30 minutes while shaking. • 13. After 30 minutes, stop reaction by adding 10 μl of 200 mM EDTA (pH 8.0) to each well. • 14. Wash 4× with deionized water, twice with TBST. • 15. Add 100 μl anti-phosphotyrosine (1:3000 dilution in TBST) per well. Incubate 30-45 min. at room temperature, with shaking. • 16. Wash as described in 4, above. • 17. Add 100 μl Biosource Goat anti-rabbit IgG peroxidase conjugate (1:2000 dilution in TBST) to each well. Incubate 30 min. at room temperature, with shaking. • 18. Wash as described in 4, above. • 19. Add 100 μl of ABTS/H2O2 solution to each well. • 20. Incubate 10 to 30 minutes with shaking. Remove any bubbles. • 21. If necessary stop reaction with the addition of 100 μl 0.2 M HCl per well. • 22. Read assay on Dynatech MR7000 ELISA reader: test filter: 410 nM, reference filter: 630 nM.

[3] = target: T2, flkGST (Homo sapiens, UniProt P35968); assay: bio flkGST assay; assay type: biochemical
T2 construct: GST

[4] = target: T3, chimeric receptor containing the EGFR extracellular domain and intracellular HER2 kinase domain (Homo sapiens, UniProt P04626); assay: EGF Receptor-HER2 chimeric receptor assay in whole cells (ELISA); assay type: cell-based; conditions: read-out: HER-2 kinase IC50
T3 construct: fused on or other part: EGFR ectodomain + HER2 intracellular part, ATP-site indolinones: HER2's kinase
Protocol: EGF Receptor-HER2 Chimeric Receptor Assay In Whole Cells.
HER2 kinase activity in whole EGFR-NIH3T3 cells are measured as described below:
• a. […] 05-101 (UBI) (a monoclonal antibody recognizing an EGFR extracellular domain). • c. Anti-phosphotyrosine antibody (anti-Ptyr) (polyclonal) (see, Fendley, et al., supra). • d. Detection antibody: Goat anti-rabbit IgG horseradish peroxidase conjugate, TAGO, Inc., Burlingame, Calif. • e. TBST buffer:
• h. Stock reagents of:
Pre-coat ELISA Plate • 1. […] Coated plates are good for up to 10 days when stored at 4° C. • 2. On day of use, remove coating buffer and replace with 100 μl blocking buffer (5% Carnation Instant Non-Fat Dry Milk in PBS). Incubate the plate, shaking, at room temperature (about 23° C. to 25° C.) for 30 minutes. Just prior to use, remove blocking buffer and wash plate 4 times with TBST buffer.
Seeding Cells • 1. An NIH3T3 cell line overexpressing a chimeric receptor containing the EGFR extracellular domain and intracellular HER2 kinase domain can be used for this assay. • 2. Choose dishes having 80-90% confluence for the experiment. Trypsinize cells and stop reaction by adding 10% fetal bovine serum. Suspend cells in DMEM medium (10% CS DMEM medium) and centrifuge once at 1500 rpm, at room temperature for 5 minutes. • 3. Resuspend cells in seeding medium (DMEM, 0.5% bovine serum), and count the cells using trypan blue. Viability above 90% is acceptable. Seed cells in DMEM medium (0.5% bovine serum) at a density of 10,000 cells per well, 100 μl per well, in a 96 well microtiter plate. Incubate seeded cells in 5% CO2. at 37° C. for about 40 hours.
Assay Procedures • 1. Check seeded cells for contamination using an inverted microscope. Dilute drug stock (10 mg/ml in DMSO) 1:10 in DMEM medium, then transfer 5 μl to a […] well for a final drug dilution of 1:200 and a final DMSO concentration of 1%. Control wells receive DMSO alone. Incubate in 5% CO2 at 37° C. for two hours. • 2. Prepare EGF ligand: dilute stock EGF in DMEM so that upon transfer of 10 μl dilute EGF (1:12 dilution), 100 nM final concentration is attained. • 3. Prepare fresh HNTG* sufficient for 100 μl per well, and place on ice.
• 4. After 120 minutes incubation with drug, add prepared […] ligand to cells, 10 μl per well, to a final concentration of 100 nM. Control wells receive DMEM alone. Incubate with shaking, at room temperature, for 5 minutes. • 5. Remove drug, EGF, and DMEM. Wash cells twice with PBS. Transfer HNTG* to cells, 100 μl per well. Place on ice for 5 minutes. Meanwhile, remove blocking buffer from other ELISA plate and wash with TBST as described above. • 6. With a pipette tip securely fitted to a micropipettor, scrape cells from plate and homogenize cell material by repeatedly aspirating and dispensing the HNTG* lysis buffer. Transfer lysate to a coated, blocked, and washed ELISA plate. Incubate shaking at room temperature for one hour. • 7. Remove lysate and wash 4 times with TBST. Transfer freshly diluted anti-Ptyr antibody to ELISA plate at 100 μl per well. Incubate shaking at room temperature for 30 minutes in the presence of the anti-Ptyr antiserum (1:3000 dilution in TBST). • 8. Remove the anti-Ptyr antibody and wash 4 times with TBST. Transfer the freshly diluted TAGO anti-rabbit IgG antibody to the ELISA plate at 100 μl per well. Incubate shaking at room temperature for 30 minutes (anti-rabbit IgG antibody: 1:3000 dilution in TBST). • 9. Remove TAGO detection antibody and wash 4 times with TBST. Transfer freshly prepared ABTS/H2O2 solution to ELISA plate, 100 μl per well. Incubate shaking at room temperature for 20 minutes. (ABTS/H2O2 solution: 1.0 μl 30% H2O2 in 10 ml ABTS stock). • 10. Stop reaction by adding 50 μl 5N H2SO4 (optional), and determine O.D. at 410 nm. • 11. The maximal phosphotyrosine signal is determined by subtracting the value of the negative controls from the positive controls. […]

T1 sequence (P09619 33-1106): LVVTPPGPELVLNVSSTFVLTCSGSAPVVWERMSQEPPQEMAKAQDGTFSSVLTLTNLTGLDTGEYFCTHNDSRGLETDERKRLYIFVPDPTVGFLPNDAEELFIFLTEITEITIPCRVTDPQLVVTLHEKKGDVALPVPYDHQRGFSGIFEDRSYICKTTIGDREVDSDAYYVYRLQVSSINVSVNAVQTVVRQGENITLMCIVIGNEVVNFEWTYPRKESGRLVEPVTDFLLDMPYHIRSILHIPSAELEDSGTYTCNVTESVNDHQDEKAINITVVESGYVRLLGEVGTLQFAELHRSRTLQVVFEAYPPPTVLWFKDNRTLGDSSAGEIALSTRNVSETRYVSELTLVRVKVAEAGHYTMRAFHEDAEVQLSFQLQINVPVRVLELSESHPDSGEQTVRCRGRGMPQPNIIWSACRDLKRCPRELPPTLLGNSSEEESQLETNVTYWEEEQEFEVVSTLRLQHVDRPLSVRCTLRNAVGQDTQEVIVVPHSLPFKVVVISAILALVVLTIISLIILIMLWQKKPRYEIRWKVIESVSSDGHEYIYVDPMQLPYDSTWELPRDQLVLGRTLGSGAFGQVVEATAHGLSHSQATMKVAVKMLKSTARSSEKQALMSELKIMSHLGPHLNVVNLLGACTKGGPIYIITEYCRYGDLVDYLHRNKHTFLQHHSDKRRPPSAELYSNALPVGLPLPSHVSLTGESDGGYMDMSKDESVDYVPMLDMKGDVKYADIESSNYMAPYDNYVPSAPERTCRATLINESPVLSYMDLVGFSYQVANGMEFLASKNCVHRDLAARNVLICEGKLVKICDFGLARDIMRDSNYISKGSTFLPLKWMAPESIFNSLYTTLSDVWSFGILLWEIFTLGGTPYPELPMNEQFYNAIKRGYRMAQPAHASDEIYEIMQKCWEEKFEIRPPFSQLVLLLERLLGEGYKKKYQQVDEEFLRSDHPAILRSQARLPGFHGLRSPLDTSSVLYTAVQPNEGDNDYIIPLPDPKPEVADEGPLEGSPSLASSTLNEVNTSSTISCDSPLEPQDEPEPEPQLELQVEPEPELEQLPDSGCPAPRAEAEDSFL
T2 sequence (P35968 786-1356 limits assumed): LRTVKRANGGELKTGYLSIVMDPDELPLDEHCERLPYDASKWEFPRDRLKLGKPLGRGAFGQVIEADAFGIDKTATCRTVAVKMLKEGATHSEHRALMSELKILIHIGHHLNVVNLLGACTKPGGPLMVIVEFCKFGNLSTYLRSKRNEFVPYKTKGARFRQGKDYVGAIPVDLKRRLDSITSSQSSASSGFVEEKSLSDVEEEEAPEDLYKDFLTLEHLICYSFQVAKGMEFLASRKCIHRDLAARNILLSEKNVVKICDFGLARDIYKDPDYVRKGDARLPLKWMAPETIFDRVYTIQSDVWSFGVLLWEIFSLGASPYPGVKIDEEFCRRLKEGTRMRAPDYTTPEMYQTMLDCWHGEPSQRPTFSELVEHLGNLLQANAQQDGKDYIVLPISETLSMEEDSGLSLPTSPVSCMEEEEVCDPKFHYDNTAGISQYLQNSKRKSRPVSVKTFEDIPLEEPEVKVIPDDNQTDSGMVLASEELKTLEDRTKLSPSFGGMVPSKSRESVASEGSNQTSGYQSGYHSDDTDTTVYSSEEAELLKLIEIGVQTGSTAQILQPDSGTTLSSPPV
T3 sequence (P04626 720-1255 limits assumed, change not shown): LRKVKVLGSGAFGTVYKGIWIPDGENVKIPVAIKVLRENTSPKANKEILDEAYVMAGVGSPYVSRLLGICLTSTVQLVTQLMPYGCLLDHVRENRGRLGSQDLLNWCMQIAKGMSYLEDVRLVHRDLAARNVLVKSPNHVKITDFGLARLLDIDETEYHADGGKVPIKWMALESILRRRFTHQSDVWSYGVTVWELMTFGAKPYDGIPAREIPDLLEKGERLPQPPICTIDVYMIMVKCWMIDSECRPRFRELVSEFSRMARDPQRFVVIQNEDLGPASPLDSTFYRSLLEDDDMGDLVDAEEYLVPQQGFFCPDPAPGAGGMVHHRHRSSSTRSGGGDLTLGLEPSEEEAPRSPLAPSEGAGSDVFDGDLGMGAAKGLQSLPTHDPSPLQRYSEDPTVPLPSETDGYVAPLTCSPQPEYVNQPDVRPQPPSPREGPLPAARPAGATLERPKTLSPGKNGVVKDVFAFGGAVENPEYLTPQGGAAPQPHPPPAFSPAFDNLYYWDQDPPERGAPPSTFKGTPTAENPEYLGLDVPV
Chain of Myc-GyrB-FGFR fusion protein (P11362 478-767 limits assumed): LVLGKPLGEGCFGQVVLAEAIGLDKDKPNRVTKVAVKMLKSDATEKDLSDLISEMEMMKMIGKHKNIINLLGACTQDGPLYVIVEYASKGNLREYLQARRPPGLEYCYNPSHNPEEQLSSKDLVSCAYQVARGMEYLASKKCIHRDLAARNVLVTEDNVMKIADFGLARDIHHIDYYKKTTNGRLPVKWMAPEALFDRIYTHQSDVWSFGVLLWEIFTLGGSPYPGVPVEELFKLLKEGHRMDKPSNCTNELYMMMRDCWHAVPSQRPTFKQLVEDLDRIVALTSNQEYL

| SMILES | IC50 [1] [µM] | IC50 [2] [µM] | IC50 [3] [µM] | IC50 [4] [µM] |
| --- | --- | --- | --- | --- |
| CCOC(=O)c1[nH]c(/C=C2\C(=O)Nc3ccccc32)c(CCC(=O)O)c1C [Example 117, 4-(2-Carboxyethyl)-3-methyl-5-(2-oxo-1,2-dihydroindol-3-ylidenemethyl)-1H-pyrrole-2-carboxylic acid ethyl ester] | > 20 | > 100 | 13.5 | – |
| CCOC(=O)c1c(C)[nH]c(/C=C2\C(=O)Nc3ccc(S(=O)(=O)NC)cc32)c1CCCN1CCCC1 [Example 126, 2-Methyl-5-(5-methylsulfamoyl-2-oxo-1,2-dihydroindol-3-ylidenemethyl)-4-(3-pyrrolidin-1-ylpropyl)-1H-pyrrole-3-carboxylic acid ethyl ester] | – | 63.3 | 14.8 | – |
| CCOC(=O)c1c(C)[nH]c(/C=C2\C(=O)Nc3ccc(S(N)(=O)=O)cc32)c1CCCN1CCCC1 [Example 130, 2-Methyl-5-(2-oxo-5-sulfamoyl-1,2-dihydroindol-3-ylidenemethyl)-4-(3-pyrrolidin-1-ylpropyl)-1H-pyrrole-3-carboxylic acid ethyl ester] | – | 2.32 | 12.9 | – |
| CCOC(=O)c1c(C)[nH]c(/C=C2\C(=O)Nc3ccc(S(N)(=O)=O)cc32)c1CCCN(C)C [Example 133, 4-(3-Dimethylaminopropyl)-2-methyl-5-(2-oxo-5-sulfamoyl-1,2-dihydroindol-3-ylidenemethyl)-1H-pyrrole-3-carboxylic acid ethyl ester] | – | 2.69 | 8.18 | – |
| COc1ccc2c(c1)/C(=C/c1[nH]c3ccccc3c1CCCN(C)C)C(=O)N2 [Example 151, 3-[3-(3-Dimethylaminopropyl)-1H-indol-2-ylmethylene]-5-methoxy-1,3-dihydroindol-2-one] | – | 0.65 | 0.71 | – |
| Cc1ccc2c(c1)/C(=C/c1[nH]c3ccccc3c1C)C(=O)N2 [Example 152, 5-Methyl-3-(3-methyl-1H-indol-2-ylmethylene)-1,3-dihydro-indol-2-one] | > 20 | – | – | > 100 |
| Cc1c(/C=C2\C(=O)Nc3ccc(S(N)(=O)=O)cc32)[nH]c2ccccc12 [Example 153, 3-(3-Methyl-1H-indol-2-ylmethylene)-2-oxo-2,3-dihydro-1H-indole-5-sulfonic acid amide] | > 20 | > 100 | – | > 100 |
| CC(=O)c1ccc2c(c1)C(=Cc1[nH]c3ccccc3c1C)C(=O)N2 [Example 157, 5-Acetyl-3-(3-methyl-1H-indol-2-ylmethylene)-1,3-dihydroindol-2-one] | > 20 | > 100 | – | > 100 |
| NS(=O)(=O)c1ccc2c(c1)/C(=C/c1cc3ccccc3[nH]1)C(=O)N2 [Example 159, 3-(1H-Indol-2-ylmethylene)-2-oxo-2,3-dihydro-1H-indole-5-sulfonic acid amide] | > 20 | 74.1 | 2.87 | – |
| O=C1Nc2cc(Cl)ccc2/C1=C/c1cc2ccccc2[nH]1 [Example 162, 6-Chloro-3-(1H-indol-2-ylmethylene)-1,3-dihydro-indol-2-one] | > 20 | 8.02 | – | – |
| O=C1Nc2ccccc2/C1=C/c1cc2ccccc2[nH]1 [Example 163, 3-(1H-Indol-2-ylmethylene)-1,3-dihydro-indol-2-one] | > 20 | > 100 | – | – |
| O=C1Nc2ccc(Cl)cc2/C1=C/c1cc2ccccc2[nH]1 [Example 164, 5-Chloro-3-(1H-indol-2-ylmethylene)-1,3-dihydro-indol-2-one] | > 20 | > 100 | – | > 100 |
| Cc1c(/C=C2\C(=O)Nc3ccccc32)[nH]c2ccccc12 [Example 167, 3-(3-Methyl-1H-indol-2-ylmethylene)-1,3-dihydro-indol-2-one] | > 20 | > 100 | – | – |
| Cc1c(/C=C2\C(=O)Nc3ccc(Cl)cc32)[nH]c2ccccc12 [Example 168, 5-Chloro-3-(3-methyl-1H-indol-2-ylmethylene)-1,3-dihydro-indol-2-one] | > 20 | > 100 | – | – |
